Experiments:
human mGlu5 [1] = molecular target: T1, human mGlu5 (Homo sapiens, UniProt P41594); experiment: Calcium mobilization assay, mGlu5 PAM activity; assay type: cell-based; conditions: for decrease in mGlu5 potency versus comparator analog: 4n vs 4k, 4x vs 4c, 4z vs unsubstituted -CH2-O- linker, 20 vs piperazinone core; for mGlu5 activity in words: 4y vs 4k, 21a-c pyrazole unit modifications
human mGlu3 [2] = molecular target: T2, human mGlu3 (Homo sapiens, UniProt Q14832)
[3] = Predicted rat hepatic clearance from microsomal CLint; assay type: in vitro ADME; conditions: predicted hepatic clearance based on microsomal CLint data
Ca channels = experiment: Cardiovascular ion channel interaction, Ca channel; conditions: read-out: Ca channel IC50
Na channels = experiment: Cardiovascular ion channel interaction, Na channel; conditions: read-out: Na channel IC50
Toxicology rat MTD study = assay type: in vivo
[4] = High content cytotoxicity assay
[5] = Terminal unbound brain concentration in the AHL study; conditions: rat, in vivo, po, 10 mg/kg
human mGlu3 [6] = molecular target: T2, human mGlu3; experiment: cell-based
human mGlu5 [7] = molecular target: T1, human mGlu5; conditions: cited from earlier work

T2 sequence (Q14832 23-879): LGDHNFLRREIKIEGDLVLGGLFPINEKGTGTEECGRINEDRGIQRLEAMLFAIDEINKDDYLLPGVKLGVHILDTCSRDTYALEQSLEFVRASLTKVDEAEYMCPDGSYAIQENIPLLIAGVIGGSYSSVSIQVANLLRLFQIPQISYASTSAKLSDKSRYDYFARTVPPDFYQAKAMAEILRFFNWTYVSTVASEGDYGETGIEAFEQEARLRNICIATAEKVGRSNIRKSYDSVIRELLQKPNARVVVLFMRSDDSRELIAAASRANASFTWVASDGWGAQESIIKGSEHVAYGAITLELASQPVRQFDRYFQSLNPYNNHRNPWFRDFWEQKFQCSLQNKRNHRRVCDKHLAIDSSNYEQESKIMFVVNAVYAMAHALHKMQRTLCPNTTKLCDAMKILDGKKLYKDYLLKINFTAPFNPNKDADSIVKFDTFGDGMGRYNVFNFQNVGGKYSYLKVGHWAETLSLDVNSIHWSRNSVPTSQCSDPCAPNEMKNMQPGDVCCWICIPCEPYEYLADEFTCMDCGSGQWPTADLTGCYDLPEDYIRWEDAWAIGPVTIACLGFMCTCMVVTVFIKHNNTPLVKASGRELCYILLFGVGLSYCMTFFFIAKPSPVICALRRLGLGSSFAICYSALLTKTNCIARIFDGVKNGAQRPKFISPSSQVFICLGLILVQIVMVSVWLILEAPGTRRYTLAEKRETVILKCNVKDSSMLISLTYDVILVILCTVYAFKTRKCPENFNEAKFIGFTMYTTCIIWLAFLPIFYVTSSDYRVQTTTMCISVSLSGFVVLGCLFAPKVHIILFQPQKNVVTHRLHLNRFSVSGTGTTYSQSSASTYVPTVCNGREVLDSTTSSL
T1 sequence (P41594 21-1212): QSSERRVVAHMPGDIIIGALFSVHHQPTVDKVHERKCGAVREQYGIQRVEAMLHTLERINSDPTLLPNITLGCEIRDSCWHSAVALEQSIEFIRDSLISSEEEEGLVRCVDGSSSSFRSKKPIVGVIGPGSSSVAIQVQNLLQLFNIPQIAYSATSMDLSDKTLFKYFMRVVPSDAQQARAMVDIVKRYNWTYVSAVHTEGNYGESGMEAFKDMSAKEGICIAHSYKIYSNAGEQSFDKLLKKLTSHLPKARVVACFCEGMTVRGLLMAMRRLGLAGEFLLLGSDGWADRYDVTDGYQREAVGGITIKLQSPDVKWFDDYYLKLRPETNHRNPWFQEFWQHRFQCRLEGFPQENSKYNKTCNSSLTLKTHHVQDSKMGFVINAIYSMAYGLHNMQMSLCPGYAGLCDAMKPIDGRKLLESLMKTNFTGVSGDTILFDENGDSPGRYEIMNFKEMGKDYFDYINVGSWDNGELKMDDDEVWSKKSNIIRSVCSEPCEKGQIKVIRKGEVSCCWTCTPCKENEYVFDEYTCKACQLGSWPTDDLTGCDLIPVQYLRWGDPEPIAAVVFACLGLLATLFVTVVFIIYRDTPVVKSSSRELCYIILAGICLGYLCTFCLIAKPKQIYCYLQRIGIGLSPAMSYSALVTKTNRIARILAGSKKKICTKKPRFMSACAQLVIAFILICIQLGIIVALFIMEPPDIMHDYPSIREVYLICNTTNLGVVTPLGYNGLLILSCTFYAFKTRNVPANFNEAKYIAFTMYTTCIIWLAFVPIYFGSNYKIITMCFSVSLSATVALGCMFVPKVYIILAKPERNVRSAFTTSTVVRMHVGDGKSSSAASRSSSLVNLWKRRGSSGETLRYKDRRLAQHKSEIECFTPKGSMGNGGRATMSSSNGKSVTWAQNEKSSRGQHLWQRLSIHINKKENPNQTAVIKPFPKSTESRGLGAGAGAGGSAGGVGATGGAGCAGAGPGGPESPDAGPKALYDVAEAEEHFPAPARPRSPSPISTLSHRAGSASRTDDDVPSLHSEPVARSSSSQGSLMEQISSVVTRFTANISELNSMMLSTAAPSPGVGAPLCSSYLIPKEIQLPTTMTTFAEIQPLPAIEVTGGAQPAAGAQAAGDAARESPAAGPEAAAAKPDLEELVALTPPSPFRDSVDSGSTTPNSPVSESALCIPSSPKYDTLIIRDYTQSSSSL

## O=C1c2cc(COc3ccccc3)nn2CCN1c1ccc(F)cc1 [4c]
Human mGlu5 [1]; HEK293 cells expressing human mGlu5, average of three or more determinations
  pEC50 (±SEM): 7.19 ± 0.02
Human mGlu3 [2]
  extent of mGlu3 antagonism: full antagonism

## Cc1ccc(N2CCn3nc(COc4ccccc4)cc3C2=O)cc1 [4f]
Human mGlu3 [2]
  extent of mGlu3 antagonism: full antagonism

## O=C1c2cc(COc3ccccc3)nn2CCN1c1ccccn1 [4h]
Human mGlu5 [1]
  increased mGlu5 potency over the 3- and 4- pyridyl isomers (4i,j): ~ 3 fold

## O=C1c2cc(COc3ccccc3)nn2CCN1c1ccc(F)cn1 [4k]
[3]
  Rat CLhep: 34.5 mL/min/kg
Ca channels
  IC50: > 10 µM
Na channels
  IC50: > 10 µM
Toxicology rat MTD study; 600 mg/kg p.o., rat MTD study
  death of animals at the highest dose: 2/6
Toxicology rat MTD study; rat MTD study 25, 75, 150, 300 and 600 mg/kg p.o.
  signs of CNS-related side-effects (compulsive behavior, pedaling movements of the forepaws, tremors): starting at the lowest tested dose
AMES
  AMES result: benign profile
[4]
  high content cytotoxicity: > 100 µM
[5]
  concentration at 90 min: 313 nM

## Cc1ccc(N2CCn3nc(COc4ccccc4)cc3C2=O)nc1 [4l]
Human mGlu3 [2]
  functional selectivity for mGlu5 versus mGlu3 antagonist activity: > 50 fold
Human mGlu3 [6]
  EC50: > 10 µM

## O=C1c2cc(COc3ccccc3)nn2CCN1c1ncc(F)cn1 [4n]
Human mGlu5 [1]
  decrease in mGlu5 potency versus comparator analog: ~ 6 fold

## O=C1c2cc(COc3ccc(F)cc3)nn2CCN1c1ccc(F)cc1 [4q]
Human mGlu3 [2]
  extent of mGlu3 antagonism: full antagonism

## O=C1c2cc(COc3ccccn3)nn2CCN1c1ccc(F)cc1 [4s]
Human mGlu3 [2]
  extent of mGlu3 antagonism: full antagonism

## O=C1c2cc(COc3cccc(F)c3)nn2CCN1c1ccc(F)cn1 [4w]
Human mGlu3 [6]
  EC50: 0.14 µM

## O=C1c2cc(OCc3ccccc3)nn2CCN1c1ccc(F)cc1 [4x]
Human mGlu5 [1]
  decrease in mGlu5 potency versus comparator analog: ~ 2.5 fold
[3]
  Rat CLhep: 34.6 mL/min/kg
[5]
  concentration at 90 min: 376 nM

## O=C1c2cc(OCc3ccccc3)nn2CCN1c1cc(F)ccn1 [4y]
Human mGlu5 [1]
  mGlu5 activity in words: complete loss of activity

## CC(Oc1ccccc1)c1cc2n(n1)CCN(c1ccc(F)cc1)C2=O (stereo not drawn) [4z]
Human mGlu5 [1]
  decrease in mGlu5 potency versus comparator analog: > 100 fold

## O=C1c2nc(COc3ccccc3)nn2CCN1c1ccc(F)cc1 [21a]
Human mGlu5 [1]
  mGlu5 activity in words: remarkable loss of mGlu5 potency

## Cc1c(COc2ccccc2)nn2c1C(=O)N(c1ccc(F)cc1)CC2 [21b]
Human mGlu5 [1]
  mGlu5 activity in words: remarkable loss of mGlu5 potency

## O=C(c1ccc(F)cc1)N1CCc2oc(COc3ccccc3)nc2C1 [compound 1]
Human mGlu5 [7]
  glutamate CRC fold-shift (FS): 11

## O=C1c2cc(COc3ccccc3)nn2CCCN1c1ccc(F)cc1 [compound 20]
Human mGlu5 [1]
  decrease in mGlu5 potency versus comparator analog: ~ 3 fold

From PMC4835042 (Bioorganic & medicinal chemistry letters, 2015)
